Values of other authors as cited in patent US8226992B1, “Composition and method of preventing and treating redox diseases” (priority 2009, dated 2012).

Columns and labels:
[1] = target: T1, Farnesoid X Receptors (FXR) (Mus musculus, UniProt Q60641); conditions: mouse model
T1 sequence (Q60641 1-488): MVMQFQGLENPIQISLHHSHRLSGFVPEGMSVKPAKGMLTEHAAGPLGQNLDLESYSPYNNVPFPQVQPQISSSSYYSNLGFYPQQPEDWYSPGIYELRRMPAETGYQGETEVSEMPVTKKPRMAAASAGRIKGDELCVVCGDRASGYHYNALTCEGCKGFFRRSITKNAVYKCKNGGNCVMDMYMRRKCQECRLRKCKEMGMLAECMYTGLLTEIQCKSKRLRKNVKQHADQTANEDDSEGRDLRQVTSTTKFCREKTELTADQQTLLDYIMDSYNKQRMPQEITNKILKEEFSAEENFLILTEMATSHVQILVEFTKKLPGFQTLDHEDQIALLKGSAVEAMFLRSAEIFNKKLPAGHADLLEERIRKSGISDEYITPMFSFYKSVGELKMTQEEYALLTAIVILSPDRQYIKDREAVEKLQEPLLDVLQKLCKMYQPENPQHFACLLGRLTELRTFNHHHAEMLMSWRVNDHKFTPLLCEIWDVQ

[2] = at high levels

Row | Compound | activity at Farnesoid X Receptors (FXR) [1] | Lp(a) levels reduced [2]
1 | C[C@@]12CCc3occc3[C@H]1CC[C@@]13C[C@@H](CC[C@H]12)[C@@](O)(CO)C3 [Cafestol] | agonist ligand | –
2 | O=C(O)c1cccnc1 [Naicin] | – | up to 15%
